Experiments:
hairpin enzyme 3a = experiment: Two component hairpin system: p-nitrophenolate / 7-hydroxycoumarin release from 8-mer prodrugs; format: biochemical; conditions: for Enhancement: (kcat/KM)/kIm
Protocol: Initial velocities of the reaction, obtained for each substrate concentration, were fitted to the Michaelis-Menten equation by a non-linear least squares method using KaleidaGraph software. The inhibition constant KI was determined in the presence of 25 mM 7d ([…]) in 10 mM sodium phosphate buffer pH 7.0 containing 1.0 M NaCl by the plotting 1/v vs. 1/[S] and calculating KI from the slope of the line according following equation:
(§1) [formula] where v is the velocity of the reaction, Vmax is the maximum velocity, KM is the substrate concentration at half maximal reaction rate, [I] is the inhibitor concentration, and [S] is the substrate concentration. Kinetics of p-nitrophenol and 7-hydroxycoumarin Release by Imidazole Alone

[1] = system: 15-mer catalytic component 3b and 23-mer template 4; experiment: Three component system: release from 8-mer prodrug with imidazole 15-mer and triggering 23-mer; format: biochemical
Protocol: For typical assays, pNP-8-mer 1 (SEQ ID NO:1) and Im-15-mer 2 were incubated in 10 mM sodium phosphate, pH 7.0, which contained 0.1 M or 1.0 M NaCl in an ultra-micro ([…]) UV cell (Varian). The reaction temperature was maintained at 20° C., and the production of p-nitrophenolate was monitored by UV absorbance at 400 nm (e400=6.26′10^3). Initial velocities of the reaction, obtained for each substrate concentration, were fitted to the Michaelis-Menten equation by a non-linear least squares method with KaleidaGraph software. The inhibition constant KI was determined in the presence of 20 mM d([…]) in 10 mM sodium phosphate buffer pH 7.0 containing 1.0 M NaCl by the plotting 1/v vs. 1/[S] and calculating KI from the slope of the line according following equation:
[formula] where v is the velocity of the reaction, Vmax is the maximum velocity, KM is the substrate concentration at half maximal reaction rate, [I] is the inhibitor concentration, and [S] is the substrate concentration. For comparison purposes, the reaction rate constant kIm for the imidazole catalyzed hydrolysis of N-maleoyl-D-valine p-nitrophenyl ester 8 was determined in imidazole buffer at pH 7.0, 1.0 M NaCl at 20° C. as previously described. […]
as §1

imidazole hairpin 3a = experiment: Fluorescein release from fluorescein dipivalate ODNs by imidazole hairpin; format: biochemical; conditions: 10 mM ODN, 5 mM hairpin 3a, 0.1 M phosphate pH 7.0, 20° C.; relative to 7a
Description: FIG. 11. […] For comparison, the release of fluorescein from the fluorescein tetramer 7aby imidazole at 0.1 M imidazole alone is also shown.
Because of the strong fluorescence and widespread use of fluorescein as a fluorescent probe, the rate of fluorescein release by imidazole catalyzed hydrolysis of diacetyl fluorescein was investigated. Diacetylated fluoresceins are non-fluorescent, but upon hydrolysis of the acyl groups become highly fluorescent. Attempts to attach the N-hydroxysuccinimide derivative of diacetylcarboxyfluorescein via amide bond formation with the 3′-amino linked oligodeoxynucleotide 5 (FIG. 4) failed due to the high pH required for the reaction which led to the premature hydrolysis of the acetate groups. Attempts to conjugate 5-chloromethyl fluorescein diacetate with a 3′-phosphorothioate labeled ODN also failed at pH 7. […] The TMs of 7a-cwere estimated from thermodynamic parameters to be -20, 19, and 41° C. under the conditions of the experiment and have equilibrium dissociation constants of 3.4 mM, 8.1 mM, and 14 nM.

[2] = 1 M NaCl; cited from earlier work
[3] = Imidazole catalyzed hydrolysis of esters (imidazole alone); format: physicochemical; conditions: 20° C.
Protocol: For comparison purposes, the rate constant kIm for the imidazole catalyzed hydrolysis of the various esters were determined in imidazole buffer at pH 7.0, 0.5 M NaCl at 20° C. as previously described. The imidazole buffers were prepared in 0.5 M NaCl, and adjusted to pH 7 by addition of 1 M HCl. […] The pseudo first-order rate constant for each concentration of imidazole was obtained by linear least squares fitting of In(A¥-A) or In(F¥-F) vs. time. The rate constants were then plotted against total imidazole concentration to get ko, the first order rate constant for the uncatalyzed hydrolysis reaction, and kIm, the second-order rate constant for catalysis by imidazole buffer.

E. coil 5S rRNA = experiment: Hydroxycoumarin release from PNA constructs on 5S rRNA trigger; format: biochemical, E. coli; conditions: unoptimized test
Description: FIG. 16. A series of PNA constructs was synthesized to target one of the hairpin loops of commercially available E. coil 5S rRNA (SEQ ID NO:11) as the nucleic acid trigger. This rRNA has been thoroughly characterized by enzymatic and chemical probes, and is therefore a suitable initial model for studying and optimizing various catalytic drug releasing motifs in folded […].
FIG. 19. […] In contrast, there was no difference in the rate of release of hydroxycoumarin from the 6-mer conjugate in the presence or absence of the histidine, or the catalytic component. (not shown).

[4] = Hydrolysis of esters in human serum
Protocol: In a typical run, 3 mL of coumarin ester solution (7 mM in acetonitrile) was added to 400 mL of Human serum, pH 8.3 (Innovative Research Inc.) in cuvette. The cuvette was capped, inverted several times for thorough mixing, placed in a cell block and recording was begun.

16a: D-valine p-nitrophenyl ester linked to the 3'-end of 8-mer ODN d(TCCTGTCA) (DNA, backbone not given here; further chemistry not fully specified)
drop in kcat relative to b-alanine ester 15a (hairpin enzyme 3a; 1.0 M NaCl): 8.3 fold
Enhancement (hairpin enzyme 3a; 1.0 M NaCl): 429
p-nitrophenol formed during the course of the reaction ([1]; 5 mM catalytic ODN and 5 mM triggering ODN): about 15 mM
release more efficient with fully matched than mismatched template ([1]; 0.1 M NaCl, 20° C.): 7.5 fold
difference in rate, matched vs mismatched template ([1]; 1 M NaCl): 1.4 fold
Vmax ([1]; 1 M NaCl, pH 7, 20° C.): 0.09 mM/min
kcat ([1]; 1 M NaCl, pH 7, 20° C.): 0.0003 s⁻¹
initial rate of p-nitrophenol release ([1]; 15-mer lacking an appended imidazole group, 1 M NaCl, pH 7, 20° C.): 0.0008 mM/min
rate acceleration over hydrolysis catalyzed by free imidazole ([1]; (kcat/KM)/kIm): 976 fold
Enhancement ([1]; (kcat/KM)/kIm, 1.0 M NaCl): 974
initial rate of p-nitrophenol release ([1]; absence of the 23-mer or Im-15-mer, 1 M NaCl, pH 7, 20° C.): 0.002 mM/min
initial rate of p-nitrophenol release ([1]; all three components, 1 M NaCl, pH 7, 20° C.): 0.057 mM/min
initial rate of release of p-nitrophenol ([1]; fully matched 23-mer, 0.1 M NaCl, 20° C.): 0.028 mM/min
initial rate of release of p-nitrophenol ([1]; mismatched 23-mer (T at position 20 replaced with C), 0.1 M NaCl, 20° C.): 0.0037 mM/min

7c: 8-mer ODN derivatized with bis-pivaloyl fluorescein (SEQ ID NO:9) (TCCTGTCA; DNA, backbone not given here; further chemistry not fully specified)
relative initial rates of fluorescein release (imidazole hairpin 3a): 493

15a (X = G): matched b-alanine p-nitrophenyl ester 8-mer ODN prodrug (SEQ ID NO:10) (TCCTNTCA; beta-alanine p-nitrophenyl ester prodrug, chemistry not fully specified)
time in which four turnovers are complete (hairpin enzyme 3a; 20 mM prodrug, 5 mM hairpin 3a, 1 M NaCl, pH 7, 20° C.): about 4 h
kcat (hairpin enzyme 3a; 1.0 M NaCl, 10 mM phosphate buffer pH 7.0, 20° C., listed as 15a): 0.0029 s⁻¹
Enhancement (hairpin enzyme 3a; 0.1 M NaCl): 281
Enhancement (hairpin enzyme 3a; 1.0 M NaCl): 446
koff needed to account for observed KM (hairpin enzyme 3a; assuming on rate 10^6 M^−1s^−1): 50 s⁻¹
rate enhancement of ester hydrolysis relative to imidazole alone (hairpin enzyme 3a; kcat/KM compared with kIm): 446 fold

15a (SEQ ID NO:10) (X=C): mismatched b-alanine p-nitrophenyl ester 8-mer prodrug, G to C transversion (DNA TCCTNTCA; b-alanine p-nitrophenyl ester prodrug, chemistry not fully specified)
difference in initial rates of p-nitrophenolate release, matched 15a (X=G) vs single CC mismatch (hairpin enzyme 3a; 1 M NaCl): 11 fold
increase in Kd of mismatch substrate needed to account for rate difference (hairpin enzyme 3a; rates proportional to (Kd+[S])^−1): 15 fold

d(GGAGCTTGCTCC): hairpin ODN of the literature (SEQ ID NO:18) (DNA, backbone not given here; hairpin)
TM reported [2]: 71 °C

CC(C)[C@H](C(=O)Oc1ccc([N+](=O)[O-])cc1)N1C(=O)C=CC1=O [11a, N-maleoyl-D-valine p-nitrophenyl ester]
kIm ([3]; imidazole buffer pH 7.0, 1.0 M NaCl): 0.014 M⁻¹ s⁻¹

8-mer PNA construct: hydroxycoumarin-bearing 8-mer PNA (SEQ ID NO:15) targeting E. coli 5S rRNA hairpin loop (CTGGGGTA; all peptide nucleic acid (PNA); hydroxycoumarin attached, position not given here)
rate of hydroxycoumarin release, all three components vs absence of the entire catalytic PNA (E. coil 5S rRNA): 4 fold
rate of hydroxycoumarin release, all three components vs all three minus the histidine (E. coil 5S rRNA): 2 fold

N-maleoyl-b-alanine-coumarin ester [9c]
stability to hydrolysis by human serum, compared [4]: more stable than the CBZ-glycine ester, but much less stable than the maleoyl-D-valine esters

7a: 4-mer ODN derivatized with bis-pivaloyl fluorescein (SEQ ID NO:7) (GTCA; DNA, backbone not given here; further chemistry not fully specified)
relative initial rates of fluorescein release (imidazole hairpin 3a): 1

CC(=O)Oc1ccc([N+](=O)[O-])cc1 [p-nitrophenylacetate, reference compound]
klm ([3]; imidazole catalyzed rate constant, pH 7, 0.5 M NaCl): 0.13 M⁻¹ s⁻¹
